{
  "source": "paper PMC7845594",
  "about": "“Novel Immune Modulators Enhance Caenorhabditis elegans Resistance to Multiple Pathogens” (mSphere, 2021)",
  "key": {"[1]": {"test_system": "C. elegans exposed to P. aeruginosa strain PA14", "assay": "P. aeruginosa slow-killing assay (agar)", "type": "in vivo, Caenorhabditis elegans", "details": "50 µM"}, "[2]": {"test_system": "C. elegans host defense pathway genes", "assay": "nanoString expression of 115 immune- and stress-responsive genes", "details": "100 μM LK molecules, 16 h", "method_in_brief": "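Wild-type young adult C. elegans (2,000 per condition) exposed to 100 μM LK molecules or DMSO control in S Basal medium for 16 h. RNA purified and expression of 115 immune- and stress-responsive genes quantified by nanoString; two biological replicates per condition.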"}},
  "data": [
    {"smiles": "CCN(CC)/N=N/c1ccc(C(=O)O)cc1", "note": "[LK35]", "values": [
      {"measurement": "TD50, slow killing", "setting": "[1]; wild-type worms, Fig 8 (DMSO 58.9)", "value": 57.5, "unit": "h"},
      {"measurement": "Survival in slow-killing assay vs DMSO", "setting": "[1]; wild-type young adult worms", "value": "not significant"},
      {"measurement": "B0024.4 expression, induction", "setting": "[2]", "value": 0.69, "unit": "fold"},
      {"measurement": "C02B4.2 nhr-17 expression, induction", "setting": "[2]", "value": 4.68, "unit": "fold"},
      {"measurement": "C06B3.7 expression, induction", "setting": "[2]", "value": 4.95, "unit": "fold"},
      {"measurement": "C07G3.2 irg-1 expression, induction", "setting": "[2]", "value": 2.81, "unit": "fold"},
      {"measurement": "C12C8.1 hsp-70 expression, induction", "setting": "[2]", "value": 9.31, "unit": "fold"},
      {"measurement": "C15F1.7 sod-1 expression, induction", "setting": "[2]", "value": 1.69, "unit": "fold"},
      {"measurement": "C29F7.2 expression, induction", "setting": "[2]", "value": 7.54, "unit": "fold"},
      {"measurement": "C31A11.5 oac-6 expression, induction", "setting": "[2]", "value": 4.61, "unit": "fold"},
      {"measurement": "C32D5.12 expression, induction", "setting": "[2]", "value": 0.39, "unit": "fold"},
      {"measurement": "C32H11.1 expression, induction", "setting": "[2]", "value": 0.93, "unit": "fold"},
      {"measurement": "C32H11.3 expression, induction", "setting": "[2]", "value": 2.10, "unit": "fold"},
      {"measurement": "C34G6.4 pgp-2 expression, induction", "setting": "[2]", "value": 8.04, "unit": "fold"},
      {"measurement": "C37C3.10 expression, induction", "setting": "[2]", "value": 68.75, "unit": "fold"},
      {"measurement": "C37H5.8 hsp-6 expression, induction", "setting": "[2]", "value": 4.54, "unit": "fold"},
      {"measurement": "C49G7.5 irg-2 expression, induction", "setting": "[2]", "value": 14.15, "unit": "fold"},
      {"measurement": "F08F8.5 numr-1 expression, induction", "setting": "[2]", "value": 26.12, "unit": "fold"},
      {"measurement": "F08H9.4 expression, induction", "setting": "[2]", "value": 14.14, "unit": "fold"},
      {"measurement": "F14F9.3 expression, induction", "setting": "[2]", "value": 17.12, "unit": "fold"},
      {"measurement": "F22B5.4 expression, induction", "setting": "[2]", "value": 0.69, "unit": "fold"},
      {"measurement": "F22H10.2 expression, induction", "setting": "[2]", "value": 2.36, "unit": "fold"},
      {"measurement": "F26A3.4 expression, induction", "setting": "[2]", "value": 1.28, "unit": "fold"},
      {"measurement": "F35E8.11 cdr-1 expression, induction", "setting": "[2]", "value": 87.64, "unit": "fold"},
      {"measurement": "F35G2.4 phy-2 expression, induction", "setting": "[2]", "value": 1.60, "unit": "fold"},
      {"measurement": "F37B12.2 gcs-1 expression, induction", "setting": "[2]", "value": 12.12, "unit": "fold"},
      {"measurement": "F43E2.8 hsp-4 expression, induction", "setting": "[2]", "value": 31.03, "unit": "fold"},
      {"measurement": "F44E5.5 expression, induction", "setting": "[2]", "value": 8.59, "unit": "fold"},
      {"measurement": "F49F1.6 expression, induction", "setting": "[2]", "value": 2.32, "unit": "fold"},
      {"measurement": "F49F1.7 expression, induction", "setting": "[2]", "value": 2.34, "unit": "fold"},
      {"measurement": "F49H6.13 expression, induction", "setting": "[2]", "value": 18.14, "unit": "fold"},
      {"measurement": "F54B8.4 expression, induction", "setting": "[2]", "value": 4.73, "unit": "fold"},
      {"measurement": "F55G11.2 expression, induction", "setting": "[2]", "value": 2.21, "unit": "fold"},
      {"measurement": "F59A7.1 clec-206 expression, induction", "setting": "[2]", "value": 9.10, "unit": "fold"},
      {"measurement": "F59B10.4 expression, induction", "setting": "[2]", "value": 4.48, "unit": "fold"},
      {"measurement": "H12D21.1 nspa-1 expression, induction", "setting": "[2]", "value": 36.00, "unit": "fold"},
      {"measurement": "H23N18.1 ugt-13 expression, induction", "setting": "[2]", "value": 10.66, "unit": "fold"},
      {"measurement": "H23N18.3 ugt-8 expression, induction", "setting": "[2]", "value": 9.55, "unit": "fold"},
      {"measurement": "K05B2.4 expression, induction", "setting": "[2]", "value": 14.78, "unit": "fold"},
      {"measurement": "K08F4.7 gst-4 expression, induction", "setting": "[2]", "value": 12.53, "unit": "fold"},
      {"measurement": "K09A9.1 nipi-3 expression, induction", "setting": "[2]", "value": 4.14, "unit": "fold"},
      {"measurement": "K10D11.2 expression, induction", "setting": "[2]", "value": 11.43, "unit": "fold"},
      {"measurement": "K10G4.3 expression, induction", "setting": "[2]", "value": 5.63, "unit": "fold"},
      {"measurement": "R03D7.6 gst-5 expression, induction", "setting": "[2]", "value": 144.12, "unit": "fold"},
      {"measurement": "R08H2.1 dhs-23 expression, induction", "setting": "[2]", "value": 121.17, "unit": "fold"},
      {"measurement": "R10E8.3 expression, induction", "setting": "[2]", "value": 5.61, "unit": "fold"},
      {"measurement": "T19D12.3 expression, induction", "setting": "[2]", "value": 88.57, "unit": "fold"},
      {"measurement": "T19H12.1 ugt-9 expression, induction", "setting": "[2]", "value": 6.78, "unit": "fold"},
      {"measurement": "T21E8.1 pgp-6 expression, induction", "setting": "[2]", "value": 2.39, "unit": "fold"},
      {"measurement": "T22B7.3 expression, induction", "setting": "[2]", "value": 7.07, "unit": "fold"},
      {"measurement": "T24C4.4 expression, induction", "setting": "[2]", "value": 4.80, "unit": "fold"},
      {"measurement": "T24E12.5 expression, induction", "setting": "[2]", "value": 34.94, "unit": "fold"},
      {"measurement": "T27E4.3 hsp-16.48 expression, induction", "setting": "[2]", "value": 10.63, "unit": "fold"},
      {"measurement": "T27E4.8 hsp-16.1 expression, induction", "setting": "[2]", "value": 10.52, "unit": "fold"},
      {"measurement": "T27F6.8 expression, induction", "setting": "[2]", "value": 3.60, "unit": "fold"},
      {"measurement": "T28C12.4 expression, induction", "setting": "[2]", "value": 9.37, "unit": "fold"},
      {"measurement": "W02D9.10 expression, induction", "setting": "[2]", "value": 7.18, "unit": "fold"},
      {"measurement": "Y22D7AL.5 hsp-60 expression, induction", "setting": "[2]", "value": 2.52, "unit": "fold"},
      {"measurement": "Y38E10A.15 nspe-7 expression, induction", "setting": "[2]", "value": 3.39, "unit": "fold"},
      {"measurement": "Y46H3A.2 hsp-16.41 expression, induction", "setting": "[2]", "value": 6.06, "unit": "fold"},
      {"measurement": "Y46H3A.3 hsp-16.2 expression, induction", "setting": "[2]", "value": 6.32, "unit": "fold"},
      {"measurement": "Y56A3A.33 expression, induction", "setting": "[2]", "value": 3.94, "unit": "fold"},
      {"measurement": "Y58A7A.5 expression, induction", "setting": "[2]", "value": 9.18, "unit": "fold"},
      {"measurement": "ZC376.7 atfs-1 expression, induction", "setting": "[2]", "value": 3.43, "unit": "fold"},
      {"measurement": "ZC443.6 ugt-16 expression, induction", "setting": "[2]", "value": 25.67, "unit": "fold"},
      {"measurement": "ZK697.6 gst-21 expression, induction", "setting": "[2]", "value": 2.35, "unit": "fold"}
    ]}
  ]
}
